{"source": "paper PMC5469811", "about": "“Identification of GXXXXG motif in Chrysophsin-1 and its implication in the design of analogs with cell-selective antimicrobial and anti-endotoxin activities” (Scientific Reports, 2017)", "key": {"[1]": {"tested_on": "Bacillus subtilis (ATCC 6633)", "experiment": "microbe, parasite or virus in culture", "assay_type": "cell-based", "details": "ATCC 6633; read-out: Minimum inhibitory concentration (MIC)", "procedure,_shortened": "(§1)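 Serial 2-fold dilution MIC; triplicate runs, averaged.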"}, "[2]": {"tested_on": "Escherichia coli (ATCC 25922)", "experiment": "microbe, parasite or virus in culture", "assay_type": "cell-based", "details": "ATCC 25922; read-out: Minimum inhibitory concentration (MIC)", "procedure,_shortened": "as §1"}, "[3]": {"tested_on": "Escherichia coli (ATCC 9637)", "experiment": "microbe, parasite or virus in culture", "assay_type": "cell-based", "details": "ATCC 9637; read-out: Minimum inhibitory concentration (MIC)", "procedure,_shortened": "as §1"}, "[4]": {"tested_on": "Klebsiella pneumoniae (ATCC 27736)", "experiment": "microbe, parasite or virus in culture", "assay_type": "cell-based", "details": "ATCC 27736; read-out: Minimum inhibitory concentration (MIC)", "procedure,_shortened": "as §1"}, "[5]": {"tested_on": "Pseudomonas aeruginosa (ATCC BAA-427)", "experiment": "microbe, parasite or virus in culture", "assay_type": "cell-based", "details": "ATCC BAA-427; read-out: Minimum inhibitory concentration (MIC)", "procedure,_shortened": "as §1"}, "[6]": {"tested_on": "Staphylococcus aureus (ATCC 25923)", "experiment": "microbe, parasite or virus in culture", "assay_type": "cell-based", "details": "ATCC 25923; read-out: Minimum inhibitory concentration (MIC)", "procedure,_shortened": "as §1"}, "[7]": {"tested_on": "Staphylococcus aureus (ATCC 29213)", "experiment": "microbe, parasite or virus in culture", "assay_type": "cell-based", "details": "ATCC 29213; read-out: Minimum inhibitory concentration (MIC)", "procedure,_shortened": "as §1"}, "[8]": {"tested_on": "Staphylococcus aureus (ATCC 33592) Methicillin resistant Genatmicin resistant", "experiment": "microbe, parasite or virus in culture", "assay_type": "cell-based", "details": "ATCC 33592; read-out: Minimum inhibitory concentration (MIC)", "procedure,_shortened": "as §1"}, "[9]": {"tested_on": "Staphylococcus aureus (ATCC 700698 MRSA)", "experiment": "microbe, parasite or virus in culture", "assay_type": "cell-based", "details": "ATCC 700698; read-out: Minimum inhibitory concentration (MIC)", "procedure,_shortened": "as §1"}, "[10]": {"tested_on": "Staphylococcus aureus (ATCC 700699 MRSA)", "experiment": "microbe, parasite or virus in culture", "assay_type": "cell-based", "details": "ATCC 700699; read-out: Minimum inhibitory concentration (MIC)", "procedure,_shortened": "as §1"}, "[11]": {"tested_on": "Sporothrix schenckii (Patient isolates)", "experiment": "microbe, parasite or virus in culture", "assay_type": "cell-based", "details": "48 h; read-out: Minimum inhibitory concentration (MIC)"}, "E. coli (ATCC 25922)": {"tested_on": "E. coli (ATCC 25922)", "assay_type": "cell-based, Escherichia coli", "details": "ATCC 25922, 1 h", "procedure,_shortened": "(§2)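 E. coli ATCC 25922 at 10^6 CFU/ml in MH broth with physiological divalent and monovalent salts was exposed to serial peptide dilutions, 18 h shaking at 37 °C, and MIC read. Variants: peptides preheated 1 h at 4, 60 or 90 °C, or assay diluent with 10% fetal bovine serum, 0.4% BSA, 0.02% acetic acid.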"}, "E. coli ATCC 25922": {"tested_on": "E. coli ATCC 25922", "assay_type": "cell-based, Escherichia coli", "details": "ATCC 25922, 18 h", "procedure,_shortened": "as §2"}, "S. aureus (ATCC 25923)": {"tested_on": "S. aureus (ATCC 25923)", "assay_type": "cell-based, Staphylococcus aureus", "details": "ATCC 25923, 1 h"}, "[12]": {"tested_on": "BALB/c mice challenged with lethal dose of LPS", "experiment": "Anti-LPS survival assay", "assay_type": "in vivo, mouse", "details": "LPS 15 mgKg−1 i.p. plus peptide single dose 5 mgKg−1, 7 days, five mice per group, LPS-only mice all died within 24 h", "description": "For survival assay, mice were challenged intraperitoneally with LPS at a lethal dose of 15 mgKg^−1 E. coli 0111:B4[5]. Control mice were injected with an equal volume of PBS. G13P-Chr-1 at a single dose of 5 mgKg^−1 was injected in the mice groups that were already administered with 15 mgKg^−1 of LPS. Each group contained five mice. The mortality of mice was monitored up to 7 days and weight change was monitored every day. The peptide G13P-Chr-1 only was also injected in two groups of mice at 5 mgKg^−1 and 10 mgKg^−1 to check any mortality in mice by peptide only treatment."}, "[13]": {"tested_on": "LPS-induced TNF-α, IL-6 and IFN-γ in serum of BALB/c mice", "experiment": "In vivo inhibition of LPS mediated cytokine production", "parameters": "species or system mouse", "details": "LPS 10 mgKg−1 plus peptide 3 mgKg−1, 1, 2, 4, 6 h, ELISA, versus LPS only", "description": "Enzyme-linked immunosorbent assays (ELISAs) were carried out to estimate the amount of tumor necrosis factor alpha (TNF-α) and interleukin-1β (IL-1β) secreted by LPS-treated THP-1 cells in the presence of peptides after 4–6 h of incubation. The levels of these cytokines in the culture supernatant of untreated and LPS-treated cells were taken as the negative and positive respectively, to calculate the percent inhibition by the peptides. For RANTES estimation the peptide LPS incubation was kept up to 24 h. The experiments were repeated twice reported as percentage inhibition. The absorbance of LPS treated cell supernatant was taken as zero inhibition. Similar ELISAs were performed to estimate the amount of TNF-α IL-6 and IFN-γ secreted by BALB/c mouse blood, which was collected from the orbital sinus at different time points post LPS injection, by using enzyme-linked immunosorbent assay kits for mouse TNF-α (BD Biosciences), IL-6 (BD Biosciences) and IFN-γ (BD Biosciences).\nAll the mice were divided into three experimental groups. Except the control group which was injected with PBS only, the other two groups were challenged with E. coli O111: B4 LPS at 10 mgkg^−1 of body weight in the presence and in the absence of 3 mgkg^−1 peptide. Blood was collected 1, 2, 4 and 6 h post LPS and peptide injection by the retro-orbital bleeding of mice. […]"}, "[14]": {"tested_on": "TNF-α in serum of BALB/c mice injected with E. coli ATCC 25922", "experiment": "In vivo TNF-α production after E. coli infection", "details": "BALB/c mice injected with mid-logarithmic phase E. coli ATCC 25922; two hours post infection; ELISA; versus untreated group", "protocol": "Serum was isolated from the blood obtained by bleeding the mice retro-orbitally two hours post infection and ELISA was performed to determine the amount of TNF-α produced in the untreated group and the peptide-treated group."}}, "note": "Residues, ends and D or L forms follow the SMILES beside them."}
{"smiles": "CC[C@H](C)[C@H](NC(=O)[C@H](C)NC(=O)[C@H](CCCCN)NC(=O)[C@@H]1CCCN1C(=O)[C@H](C)NC(=O)[C@H](Cc1c[nH]cn1)NC(=O)[C@@H](NC(=O)[C@H](C)NC(=O)CNC(=O)[C@H](CCCCN)NC(=O)[C@@H](NC(=O)[C@H](CC(C)C)NC(=O)[C@H](Cc1c[nH]c2ccccc12)NC(=O)CNC(=O)[C@H](Cc1ccccc1)NC(=O)[C@@H](N)Cc1ccccc1)[C@@H](C)CC)[C@@H](C)CC)C(=O)N[C@@H](Cc1c[nH]cn1)C(=O)NCC(=O)N[C@@H](CC(C)C)C(=O)N[C@H](C(=O)N[C@@H](Cc1c[nH]cn1)C(=O)N[C@@H](CCCNC(=N)N)C(=O)N[C@@H](CCCNC(=N)N)C(=O)N[C@@H](CCCNC(=N)N)C(=O)N[C@@H](Cc1c[nH]cn1)C(N)=O)[C@@H](C)CC", "note": "[Peptide G13P-Chr-1] (H-FFGWLIKGAIHAPKAIHGLIHRRRH-NH2)", "values": [{"measurement": "MIC", "setting": "[1]", "value": 3, "unit": "µM"}, {"measurement": "MIC", "setting": "[2]", "value": 5, "unit": "µM"}, {"measurement": "MIC", "setting": "[3]", "value": 3, "unit": "µM"}, {"measurement": "MIC", "setting": "[4]", "value": 6.8, "unit": "µM"}, {"measurement": "MIC", "setting": "[5]", "value": 6.8, "unit": "µM"}, {"measurement": "MIC", "setting": "[6]", "value": 3, "unit": "µM"}, {"measurement": "MIC", "setting": "[7]", "value": 1.6, "unit": "µM"}, {"measurement": "MIC", "setting": "[8]", "value": 1.6, "unit": "µM"}, {"measurement": "MIC", "setting": "[9]", "value": 3, "unit": "µM"}, {"measurement": "MIC", "setting": "[10]", "value": 1.6, "unit": "µM"}, {"measurement": "MIC", "setting": "[11]", "value": 27.2, "unit": "µM"}, {"measurement": "Antibacterial activity (MIC) after incubating peptide at 4 °C", "setting": "E. coli (ATCC 25922)", "value": 5, "unit": "µM"}, {"measurement": "Antibacterial activity (MIC) after incubating peptide at 60 °C", "setting": "E. coli (ATCC 25922)", "value": 8.6, "unit": "µM"}, {"measurement": "Antibacterial activity (MIC) after incubating peptide at 90 °C", "setting": "E. coli (ATCC 25922)", "value": 12.3, "unit": "µM"}, {"measurement": "Antibacterial activity (MIC) in the presence of 10% FBS", "setting": "E. coli ATCC 25922", "value": 8.6, "unit": "µM"}, {"measurement": "Antibacterial activity (MIC) in the presence of FeCl3", "setting": "E. coli ATCC 25922", "value": 4.1, "unit": "µM"}, {"measurement": "Antibacterial activity (MIC) in the presence of KCl", "setting": "E. coli ATCC 25922", "value": 4.3, "unit": "µM"}, {"measurement": "Antibacterial activity (MIC) in the presence of MgCl2", "setting": "E. coli ATCC 25922", "value": 4.3, "unit": "µM"}, {"measurement": "Antibacterial activity (MIC) in the presence of NH4Cl", "setting": "E. coli ATCC 25922", "value": 2.0, "unit": "µM"}, {"measurement": "Antibacterial activity (MIC) in the presence of NaCl", "setting": "E. coli ATCC 25922", "value": 8.6, "unit": "µM"}, {"measurement": "Antibacterial activity (MIC) after incubating peptide at 4 °C", "setting": "S. aureus (ATCC 25923)", "value": 3, "unit": "µM"}, {"measurement": "Antibacterial activity (MIC) after incubating peptide at 60 °C", "setting": "S. aureus (ATCC 25923)", "value": 13, "unit": "µM"}, {"measurement": "Antibacterial activity (MIC) after incubating peptide at 90 °C", "setting": "S. aureus (ATCC 25923)", "value": 17.3, "unit": "µM"}, {"measurement": "survival of mice", "setting": "[12]", "value": 40, "unit": "%"}, {"measurement": "LPS-induced production of TNF-α, IL-6 and IFN-γ in serum", "setting": "[13]", "value": "significant reduction"}, {"measurement": "TNF-α production in serum", "setting": "[14]", "value": "significant reduction"}]}
